Results from ChEMBL document CHEMBL1141904, “Benzothiophenes containing a piperazine side chain as selective ligands for the estrogen receptor alpha and their bioactivities in vivo” (Bioorg Med Chem Lett, 2005).

Columns and labels:
[1] = target: T1, Estrogen receptor (Homo sapiens, UniProt P03372)
T1 sequence (P03372 whole entry): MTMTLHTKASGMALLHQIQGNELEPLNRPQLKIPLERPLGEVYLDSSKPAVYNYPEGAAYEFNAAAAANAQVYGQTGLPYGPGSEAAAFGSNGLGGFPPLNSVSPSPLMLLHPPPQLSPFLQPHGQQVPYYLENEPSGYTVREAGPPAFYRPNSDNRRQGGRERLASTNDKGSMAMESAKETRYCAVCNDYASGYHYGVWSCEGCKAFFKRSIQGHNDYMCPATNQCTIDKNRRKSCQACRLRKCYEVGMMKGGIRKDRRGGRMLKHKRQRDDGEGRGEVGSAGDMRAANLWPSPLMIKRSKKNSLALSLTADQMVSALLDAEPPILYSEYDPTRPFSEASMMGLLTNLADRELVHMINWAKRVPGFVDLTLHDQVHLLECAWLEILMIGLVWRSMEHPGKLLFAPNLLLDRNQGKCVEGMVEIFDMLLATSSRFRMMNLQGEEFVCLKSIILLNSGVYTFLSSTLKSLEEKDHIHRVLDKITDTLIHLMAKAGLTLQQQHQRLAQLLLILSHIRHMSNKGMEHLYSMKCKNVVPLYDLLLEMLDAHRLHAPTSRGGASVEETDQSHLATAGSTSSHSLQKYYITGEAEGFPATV
Description: Inhibition of estrogen receptor alpha

[2] = target: Estrogen receptor beta (Homo sapiens, UniProt Q92731); assay: Inhibition of estrogen receptor beta
Sequence of Estrogen receptor beta (Q92731 whole entry): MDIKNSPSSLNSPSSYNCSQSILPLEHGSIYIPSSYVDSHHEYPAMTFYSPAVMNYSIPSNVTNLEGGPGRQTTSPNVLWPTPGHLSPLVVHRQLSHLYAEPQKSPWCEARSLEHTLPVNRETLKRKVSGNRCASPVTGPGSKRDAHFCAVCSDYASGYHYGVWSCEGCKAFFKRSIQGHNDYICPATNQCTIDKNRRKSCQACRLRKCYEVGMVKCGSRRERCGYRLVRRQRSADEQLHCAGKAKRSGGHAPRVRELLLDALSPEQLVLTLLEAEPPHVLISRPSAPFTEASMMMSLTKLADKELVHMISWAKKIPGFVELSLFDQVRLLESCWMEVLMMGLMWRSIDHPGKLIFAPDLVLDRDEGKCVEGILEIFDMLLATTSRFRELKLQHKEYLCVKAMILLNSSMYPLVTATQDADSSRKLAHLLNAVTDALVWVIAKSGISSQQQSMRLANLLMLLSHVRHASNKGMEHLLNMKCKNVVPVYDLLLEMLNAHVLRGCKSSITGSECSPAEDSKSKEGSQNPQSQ

[3] = target: T2, Estrogen receptor (Mus musculus) (UniProt P19785); conditions: Uterus
T2 sequence (whole entry): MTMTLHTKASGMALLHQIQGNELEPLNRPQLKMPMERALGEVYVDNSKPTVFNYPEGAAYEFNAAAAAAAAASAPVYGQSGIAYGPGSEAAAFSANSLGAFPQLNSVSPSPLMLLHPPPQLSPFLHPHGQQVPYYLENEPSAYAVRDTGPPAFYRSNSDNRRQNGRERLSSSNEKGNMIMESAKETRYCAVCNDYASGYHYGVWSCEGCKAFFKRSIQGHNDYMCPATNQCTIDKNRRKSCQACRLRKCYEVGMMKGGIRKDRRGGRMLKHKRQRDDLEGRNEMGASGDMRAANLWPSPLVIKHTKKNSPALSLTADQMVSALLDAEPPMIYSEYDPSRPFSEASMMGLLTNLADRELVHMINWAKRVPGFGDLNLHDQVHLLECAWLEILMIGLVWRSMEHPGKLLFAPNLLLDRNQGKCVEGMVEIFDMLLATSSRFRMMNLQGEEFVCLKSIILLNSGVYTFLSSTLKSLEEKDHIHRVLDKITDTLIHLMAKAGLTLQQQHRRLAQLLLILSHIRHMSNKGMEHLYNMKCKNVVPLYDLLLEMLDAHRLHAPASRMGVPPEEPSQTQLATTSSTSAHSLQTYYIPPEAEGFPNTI
Description: Uterine weight assay of compound was determined in vivo against estrogen receptor alpha

[4] = target: T2, Estrogen receptor (Mus musculus)
Description: Bone mineral density of compound was determined in vivo against estrogen receptor alpha

| SMILES | IC50 [1] [nM] | IC50 [2] [nM] | Uterine weight [3] [mg] | Bone mineral density [4] [mg/cubic cm] |
| --- | --- | --- | --- | --- |
| O=C(c1ccc(N2CCN(Cc3ccccc3)CC2)cc1)c1c(-c2ccc(O)cc2)sc2cc(O)ccc12 | 0.97 | 5.53 | – | – |
| Cc1cccc(C(=O)N2CCN(c3ccc(C(=O)c4c(-c5ccc(O)cc5)sc5cc(O)ccc45)cc3)CC2)c1 | 0.27 | 12.5 | – | – |
| O=C(c1ccc(N2CCN(C(=O)c3ccc([N+](=O)[O-])cc3)CC2)cc1)c1c(-c2ccc(O)cc2)sc2cc(O)ccc12 | 2.15 | 1.27 | – | – |
| Cc1cc(C)nc(N2CCN(c3ccc(C(=O)c4c(-c5ccc(O)cc5)sc5cc(O)ccc45)cc3)CC2)n1 | 2.12 | 66.5 | – | – |
| O=C(c1ccc(N2CCN(C(=O)c3cccc(Cl)c3)CC2)cc1)c1c(-c2ccc(O)cc2)sc2cc(O)ccc12 | 0.46 | 3.7 | 29.3 | 432 |
| O=C(c1ccc(N2CCN(c3ccc(Cl)cc3)CC2)cc1)c1c(-c2ccc(O)cc2)sc2cc(O)ccc12 | 0.22 | 9.07 | 30.5 | 482 |
| O=C(c1ccc(N2CCN(C(=O)c3cccc(O)c3)CC2)cc1)c1c(-c2ccc(O)cc2)sc2cc(O)ccc12 | 1.39 | 19.8 | – | – |
| O=C(c1ccc(N2CCN(C(=O)c3ccncc3)CC2)cc1)c1c(-c2ccc(O)cc2)sc2cc(O)ccc12 | 14.5 | 93.6 | – | – |
| Cc1ccccc1C(=O)N1CCN(c2ccc(C(=O)c3c(-c4ccc(O)cc4)sc4cc(O)ccc34)cc2)CC1 | 3.94 | 17.7 | – | – |
| O=C(c1ccc(N2CCN(C3CCCC3)CC2)cc1)c1c(-c2ccc(O)cc2)sc2cc(O)ccc12 | 1.08 | 18.1 | – | – |
| O=C(c1ccc(N2CCN(C(=O)c3ccco3)CC2)cc1)c1c(-c2ccc(O)cc2)sc2cc(O)ccc12 | 2.65 | 20.1 | – | – |
| O=C(c1ccc(N2CCN(C(=O)c3ccc(Cl)cc3)CC2)cc1)c1c(-c2ccc(O)cc2)sc2cc(O)ccc12 | 0.78 | 4.02 | – | – |
| O=C(c1ccc(N2CCN(C(=O)c3ccccc3)CC2)cc1)c1c(-c2ccc(O)cc2)sc2cc(O)ccc12 | 0.86 | 25.3 | – | – |
| CCCN1CCN(c2ccc(C(=O)c3c(-c4ccc(O)cc4)sc4cc(O)ccc34)cc2)CC1 | 1.43 | 29.4 | – | – |
| O=C(c1ccc(N2CCN(C(=O)c3ccccc3Cl)CC2)cc1)c1c(-c2ccc(O)cc2)sc2cc(O)ccc12 | 1.72 | 3.21 | – | – |
| O=C(c1ccc(N2CCN(Cc3ccc([N+](=O)[O-])cc3)CC2)cc1)c1c(-c2ccc(O)cc2)sc2cc(O)ccc12 | – | 14.2 | – | – |
| CC(C)N1CCN(c2ccc(C(=O)c3c(-c4ccc(O)cc4)sc4cc(O)ccc34)cc2)CC1 | 0.28 | 33.9 | 38.8 | 541 |
| Cc1ccc(C(=O)N2CCN(c3ccc(C(=O)c4c(-c5ccc(O)cc5)sc5cc(O)ccc45)cc3)CC2)cc1 | 2.74 | 4.94 | – | – |
| O=C(c1ccc(N2CCN(C(=O)c3ccccc3[N+](=O)[O-])CC2)cc1)c1c(-c2ccc(O)cc2)sc2cc(O)ccc12 | 3.58 | 12.9 | – | – |
| O=C(c1ccc(N2CCN(C(=O)c3ccccc3O)CC2)cc1)c1c(-c2ccc(O)cc2)sc2cc(O)ccc12 | 3.05 | 7.92 | – | – |
